For one test, the target named is T1, NEP enzyme (Homo sapiens, UniProt P08473).
T1 construct: purchased R&D Systems, Minneapolis, Minn; 1182-ZN
The experiment in a line: NEP enzyme inhibition assay (fluorogenic peptide substrate). Particulars: values given as lower bounds; * = prodrugs, may not exhibit NEP activity in an in vitro assay; read-out: NEP pIC50 (converted). The class given is biochemical. How it is done: B. In Vitro Assays for the Quantitation of Inhibitor Potencies (IC50) at Human and Rat NEP, and Human ACE
The inhibitory activities of compounds at human and rat NEP and human ACE were determined using in vitro assays as described below.
Recombinant human NEP and recombinant human ACE were obtained commercially (R&D Systems, Minneapolis, Minn., catalog numbers 1182-ZN and 929-ZN, respectively). The fluorogenic peptide substrate Mca-BK2 (Mca-Arg-Pro-Pro-Gly-Phe-Ser-Ala-Phe-Lys(Dnp)-OH; Johnson et al. (2000) Anal. Biochem. 286: 112-118) was used for the human NEP and ACE assays, and Mca-RRL (Mca-DArg-Arg-Leu-(Dnp)-OH; Medeiros et al. (1997) Braz. J. Med. Biol. Res. 30:1157-1162) was used for the rat NEP assay (both from Anaspec, San Jose, Calif.).
The assays were performed in 384-well white opaque plates at room temperature using the respective fluorogenic peptides at a concentration of 10 μM in assay buffer (50 mM Tris/HCl at 25° C., 100 mM NaCl, 0.01% Tween-20, 1 μM Zn, 0.025% BSA). […] The rat NEP enzyme preparation was used at a concentration that yielded quantitative proteolysis of 3 μM of Mca-RRL within 20 minutes at room temperature.
Test compounds were diluted to 12 concentrations from 10 μM to 20 pM in Assay Buffer. Assays were started by adding 25 μL of enzyme to 12.5 μL of test compound at each of the 12 concentrations. Test compounds were allowed to equilibrate with the enzyme for 10 minutes before 12.5 μL of the fluorogenic substrates were added to initiate the reaction. Reactions were terminated by the addition of 10 μL of 3.6% glacial acetic acid after 20 minutes of incubation.
For sulfhydryl-containing test compounds, the test compounds may be diluted in Assay Buffer containing a 400 μM concentration of tris(2-carboxyethyl)phosphine hydrochloride (Thermo Scientific, Rockford, Ill.) (TCEP). The test compounds are then incubated for 40 minutes at room temperature (to allow for dimer cleavage) before adding the enzyme. Test compounds are then allowed to equilibrate with the enzyme for 20 minutes before adding the fluorogenic substrates. Reactions are terminated as above.
Plates were read on a fluorometer with excitation and emission wavelengths set to 320 nm and 405 nm, respectively. Raw data (relative fluorescence units) were normalized to % activity from the average high readings (no inhibition, 100% enzyme activity) and average low readings (full inhibition, highest inhibitor concentration, 0% enzyme activity) using three standard NEP and ACE inhibitors, respectively. Nonlinear regression of the normalized data was performed using a one site competition model (GraphPad Software, Inc., San Diego, Calif.). Data were reported as pIC50 values.

The next test addresses T2, human AT1 receptor (Homo sapiens, UniProt P30556).
T2 construct: expressed in transfected cells; host or cells: CHO-K1
T2 sequence (P30556 1-359): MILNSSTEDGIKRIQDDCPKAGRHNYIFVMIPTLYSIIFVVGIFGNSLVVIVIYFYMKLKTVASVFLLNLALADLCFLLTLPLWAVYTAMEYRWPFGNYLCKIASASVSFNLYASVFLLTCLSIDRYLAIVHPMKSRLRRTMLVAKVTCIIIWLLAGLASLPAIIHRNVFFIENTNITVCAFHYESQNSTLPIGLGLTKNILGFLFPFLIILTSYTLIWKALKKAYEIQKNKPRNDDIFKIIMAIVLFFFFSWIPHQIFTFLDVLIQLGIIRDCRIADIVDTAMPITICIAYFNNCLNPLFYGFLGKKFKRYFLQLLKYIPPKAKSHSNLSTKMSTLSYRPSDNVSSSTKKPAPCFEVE
The experiment in a line: AT1 radioligand binding assay (displacement of [Eu]AngII). Particulars: membranes of CHO-K1 cells expressing cloned human AT1 receptor; values given as lower bounds; read-out: AT1 pKi (converted). How it is done:
A. AT1 and AT2 Radioligand Binding Assays
These in vitro assays were used to assess the ability of test compounds to bind to the AT1 and the AT2 receptors.
Membrane Preparation from Cells Expressing Human AT1 or AT2 Receptors
Chinese hamster ovary (CHO-K1) derived cell lines stably expressing the cloned human AT1 or AT2 receptors, respectively, were grown in HAM's-F12 medium supplemented with 10% fetal bovine serum, 10 μg/ml penicillin/streptomycin, and 500 μg/ml geneticin in a 5% CO2 humidified incubator at 37° C. AT2 receptor expressing cells were grown in the additional presence of 100 nM PD123,319 (AT2 antagonist). When cultures reached 80-95% confluence, the cells were washed thoroughly in PBS and lifted with 5 mM EDTA. Cells were pelleted by centrifugation and snap frozen in MeOH-dry ice and stored at −80° C. until further use.
For membrane preparation, cell pellets were resuspended in lysis buffer (25 mM Tris/HCl pH 7.5 at 4° C., 1 mM EDTA, and one tablet of Complete Protease Inhibitor Cocktail Tablets with 2 mM EDTA per 50 mL buffer (Roche cat.#1697498, Roche Molecular Biochemicals, Indianapolis, Ind.)) and homogenized using a tight-fitting Dounce glass homogenizer (10 strokes) on ice. The homogenate was centrifuged at 1000×g, the supernatant was collected and centrifuged at 20,000×g. The final pellet was resuspended in membrane buffer (75 mM Tris/HCl pH 7.5, 12.5 mM MgCl2, 0.3 mM EDTA, 1 mM EGTA, 250 mM sucrose at 4° C.) and homogenized by extrusion through a 20G gauge needle. Protein concentration of the membrane suspension was determined by the method described in Bradford (1976) Anal Biochem. 72:248-54. Membranes were snap frozen in MeOH-dry ice and stored at −80° C. until further use.
Ligand Binding Assay to Determine Compound Affinities for the Human AT1 and AT2 Angiotensin Receptors
Binding assays were performed in 96-well Acrowell filter plates (Pall Inc., cat.#5020) in a total assay volume of 100 μL with 0.2 μg membrane protein for membranes containing the human AT1 receptor, or 2 μg membrane protein for membranes containing the human AT2 receptor in assay buffer (50 mM Tris/HCl pH 7.5 at 20° C., 5 mM MgCl2, 25 μM EDTA, 0.025% BSA). Saturation binding studies for determination of Kd values of the ligand were done using N-terminally Europium-labeled angiotensin-II ([Eu]AngII, H-(Eu-N^1)-Ahx-Asp-Arg-Val-Tyr-Ile-His-Pro-Phe-OH; PerkinElmer, Boston, Mass.) at 8 different concentrations ranging from 0.1 nM to 30 nM. […] Drugs were dissolved to a concentration of 1 mM in DMSO and from there serially diluted into assay buffer. Non-specific binding was determined in the presence of 10 μM unlabeled angiotensin-II. Assays were incubated for 120 minutes in the dark, at room temperature or 37° C., and binding reactions were terminated by rapid filtration through the Acrowell filter plates followed by three washes with 200 μL ice cold wash buffer (50 mM Tris/HCl pH 7.5 at 4° C., 5 mM MgCl2) using a Waters filtration manifold. Plates were tapped dry and incubated with 50 μl DELFIA Enhancement Solution (PerkinElmer cat.#4001-0010) at room temperature for 5 minutes on a shaker. Filter-bound [Eu]AngII was quantitated immediately on a Fusion plate reader (PerkinElmer) using Time Resolved Fluorescence (TRF). Binding data were analyzed by nonlinear regression analysis with the GraphPad Prism Software package (GraphPad Software, Inc., San Diego, Calif.) using the 3-parameter model for one-site competition. The BOTTOM (curve minimum) was fixed to the value for nonspecific binding, as determined in the presence of 10 μM angiotensin II. Ki values for drugs were calculated from observed IC50 values and the Kd value of [Eu]AngII according to the Cheng-Prusoff equation described in Cheng et al. (1973) Biochem Pharmacol. 22 (23):3099-108. Selectivities of test compounds for the AT1 receptor over the AT2 receptor were calculated as the ratio of AT2Ki/AT1Ki. […]

Some results are limits rather than exact numbers.

Results on eleven compounds are retold here after US8350027B2, “Dual-acting pyrazole antihypertensive agents” (Theravance, Inc., priority 2009, dated 2013).

T1 sequence (P08473 52-750 limits assumed): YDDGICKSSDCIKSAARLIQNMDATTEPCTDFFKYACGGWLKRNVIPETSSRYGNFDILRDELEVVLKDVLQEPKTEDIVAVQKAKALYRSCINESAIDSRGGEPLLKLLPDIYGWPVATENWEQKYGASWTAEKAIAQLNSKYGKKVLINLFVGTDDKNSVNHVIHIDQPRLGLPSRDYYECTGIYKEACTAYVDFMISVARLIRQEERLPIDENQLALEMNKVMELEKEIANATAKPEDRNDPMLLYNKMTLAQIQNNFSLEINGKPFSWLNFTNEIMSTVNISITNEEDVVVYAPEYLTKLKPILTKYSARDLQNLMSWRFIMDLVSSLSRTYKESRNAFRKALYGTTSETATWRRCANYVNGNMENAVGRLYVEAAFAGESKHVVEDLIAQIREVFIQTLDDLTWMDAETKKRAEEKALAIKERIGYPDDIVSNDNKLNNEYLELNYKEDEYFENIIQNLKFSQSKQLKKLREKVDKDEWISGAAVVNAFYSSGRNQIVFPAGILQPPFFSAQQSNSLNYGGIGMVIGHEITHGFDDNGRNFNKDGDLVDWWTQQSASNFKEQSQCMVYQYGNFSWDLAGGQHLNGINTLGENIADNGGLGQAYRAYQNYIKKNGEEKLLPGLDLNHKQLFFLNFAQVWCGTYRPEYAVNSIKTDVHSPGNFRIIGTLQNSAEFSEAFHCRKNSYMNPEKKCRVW

For the compound `CCCc1cc(C(=O)N[C@@H](CS)Cc2ccccc2)nn1Cc1ccc(-c2ccccc2-c2nnn[nH]2)c(F)c1` [Example 3-11, 1-((2-Fluoro-2′-(1H-tetrazol-5-yl)biphenyl-4-yl)methyl)-N-((R)-1-mercapto-3-phenylpropan-2-yl)-5-propyl-1H-pyrazole-3-carboxamide], the IC50 on NEP enzyme is not above 0.1 µM. Besides, the Ki at human AT1 receptor was not above 0.01 µM.
The like results for `CCCc1cc(C(=O)N[C@@H](CS)Cc2ccccc2)nn1Cc1ccc(-c2ccccc2-c2nnn[nH]2)cc1` [Example 3-6, 5-Propyl-1-[2′-(1H-tetrazol-5-yl)biphenyl-4-ylmethyl]-1H-pyrazole-3-carboxylic acid ((R)-1-benzyl-2-mercaptoethyl)amide] were, in that order, not above 0.1 µM and not above 0.01 µM.
Take `CCOc1cc(C(=O)N[C@@H](CC(=O)O)Cc2ccccc2)nn1Cc1ccc(-c2ccccc2-c2nnn[nH]2)cc1F` [Example 3-31, (R)-3-({5-Ethoxy-1-[3-fluoro-2′-(1H-tetrazol-5-yl)biphenyl-4-ylmethyl]-1H-pyrazole-3-carbonyl}amino)-4-phenylbutyric acid]: on NEP enzyme, the IC50 is not above 10 µM. The Ki on human AT1 receptor was not above 0.1 µM.
With `CCCc1cc(C(=O)N[C@@H](CC(=O)O)Cc2ccccc2Br)nn1Cc1ccc(-c2ccccc2-c2nnn[nH]2)cc1` [Example 3-13, (R)-4-(2-Bromophenyl)-3-({5-propyl-1-[2′-(1H-tetrazol-5-yl)-biphenyl-4-ylmethyl]-1H-pyrazole-3-carbonyl}amino)butyric acid], the IC50 on NEP enzyme was not above 1 µM. The Ki on human AT1 receptor is not above 0.01 µM.
Regarding `CCCc1cc(C(=O)N[C@H](Cc2ccccc2)[C@@H](O)C(=O)O)nn1Cc1ccc(-c2ccccc2S(=O)(=O)NC(=O)c2ccccn2)cc1` [Example 7-9, (2R,3R)-2-Hydroxy-4-phenyl-3-[(5-propyl-1-{2′-[(pyridine-2-carbonyl)sulfamoyl]biphenyl-4-ylmethyl}-1H-pyrazole-3-carbonyl)amino]butyric acid], the IC50 on NEP enzyme was not above 1 µM. For the same compound, on human AT1 receptor, the Ki was not above 0.01 µM.
Regarding `CCCc1cc(C(=O)N[C@H](Cc2ccccc2)[C@@H](O)C(=O)O)nn1Cc1ccc(-c2ccccc2S(=O)(=O)NC(=O)c2ccccc2F)cc1` [Example 7-3, (2R,3R)-3-({1-[2′-(2-Fluorobenzoylsulfamoyl)biphenyl-4-ylmethyl]-5-propyl-1H-pyrazole-3-carbonyl}amino)-2-hydroxy-4-phenylbutyric acid], at NEP enzyme, the IC50 was not above 1 µM. Also, on human AT1 receptor, the Ki is not above 0.01 µM.
With `CCCc1cc(C(=O)N[C@@H](CC(=O)NO)Cc2ccccc2)nn1Cc1ccc(-c2ccccc2S(=O)(=O)NC(C)=O)cc1` [Example 6-18, 1-(2′-Acetylsulfamoylbiphenyl-4-ylmethyl)-5-propyl-1H-pyrazole-3-carboxylic acid ((R)-1-benzyl-2-hydroxycarbamoylethyl)amide], at NEP enzyme, the IC50 was not above 0.1 µM. The Ki on human AT1 receptor was not above 0.01 µM.
The matching figures for `CCCc1cc(C(=O)N[C@@H](CC(=O)O)Cc2ccccc2Br)nn1Cc1ccc(-c2ccccc2-c2nnn[nH]2)nc1` [Example 14-4, (R)-4-(2-Bromophenyl)-3-[(5-propyl-1-{6-[2-(1H-tetrazol-5-yl)-phenyl]-pyridin-3-ylmethyl}-1H-pyrazole-3-carbonyl)amino]butyric acid]: not above 0.1 µM and not above 0.01 µM.
Consider `CCCc1cc(C(=O)N[C@H](Cc2ccccc2)[C@@H](O)C(=O)O)nn1Cc1ccc(-c2ccccc2S(=O)(=O)NC(=O)N(C)C)cc1` [Example 7-20, (2R,3R)-3-(1-((2′-(N-(dimethylcarbamoyl)sulfamoyl)biphenyl-4-yl)methyl)-5-propyl-1H-pyrazole-3-carboxamido)-2-hydroxy-4-phenylbutanoic acid], for which the IC50 at NEP enzyme was not above 0.1 µM. Moreover, the Ki on human AT1 receptor is not above 0.01 µM.
In the case of `CCCc1cc(C(=O)N[C@H](Cc2ccccc2)[C@@H](O)C(=O)O)nn1Cc1ccc(-c2ccccc2S(=O)(=O)NC(=O)C2CC2)cc1` [Example 7-2, (2R,3R)-3-({1-[2′-(Cyclopropanecarbonylsulfamoyl)biphenyl-4-ylmethyl]-5-propyl-1H-pyrazole-3-carbonyl}amino)-2-hydroxy-4-phenylbutyric acid], on NEP enzyme, the IC50 was not above 0.1 µM. Also, the Ki at human AT1 receptor was not above 0.01 µM.
On to `CCCc1cc(C(=O)N[C@@H](CC(=O)O)Cc2ccccc2Cl)nn1Cc1ccc(-c2ccccc2-c2nnn[nH]2)nc1` [Example 10, (R)-4-(2-Chlorophenyl)-3-[(5-propyl-1-{6-[2-(1H-tetrazol-5-yl)phenyl]pyridin-3-ylmethyl}-1H-pyrazole-3-carbonyl)amino]butyric Acid], for which the IC50 on NEP enzyme was not above 0.1 µM. For the same compound, on human AT1 receptor, the Ki is not above 0.01 µM.
